# In US20010051630A1, “Use of hydroxylamine derivatives, and method and preparations for increasing the tolerance of field crops against weather stresses” (priority 1997, published 2001):
# Marks after values point to notes of the source that are not given here.
# Experiments:
# Soybean seeds = test: Pearling of soybean seeds, then CSVT; assay type: in vivo
# Experimental: (§1) In this experiment the tolerance of maize, soybean and pepper seeds treated with the active agent against cold was tested. This test imposed temperature and oxygen deficiency stresses on the seeds and was carried out according to Barla-Szabó and Dolinka CSVT (Complex Stressing Vigour Test). For a single test, two hundred seeds were soaked for 48 hours at 25° C. and another 48 hours at 5° C in 150 ml distilled water containing the active agent in 10 mg/l concentration. Following the 96 hours of soaking, the seeds were further germinated between rolled wet paper for 96 hours at 25° C. There were 25 seeds in each roll, the rolls were placed vertically into containers and covered with a plastic bag in order to reduce evaporation. During the whole procedure the seeds were kept in darkness.
# (§2) At the end of the experiment the number of normally developing and ungerminated seeds were recorded. The length of the normal seedlings was measured and the average length of the five longest seedlings was calculated. Seedlings longer than 0.33 times the average length of the five longest seedlings were considered to be of high vigour, and low vigour seedlings were shorter than this length.
# Soybean seeds are treated with a pearling agent, which contains 1 mg/ml of N-[3-(1-piperidinyl)propoxy]-3-nitro-benzimidoyl-chloride monohydrochloride (Compound 3) in a 5% aqueous polyvinylalcohol solution. 100 seeds and 1 ml of pearling agent are filled into a glass vessel and while the vessel is rotated, the seeds are coated with the agent and then it is left to dry. For seeds treated this way, we obtained the following results when placed under the conditions of the CSVT test described in Example 7.
# green peppers = test: CSVT, green peppers; assay type: in vivo, pepper
# Experimental: as §1, §2
# Under the circumstances of the CSVT test, they increased the length of the sprouts and the roots along with the proportion of the high vigour seedlings. […]
# bean cv. Seaway = test: Frost tolerance of beans; assay type: in vivo; details: watering, 10 mg/l; −2° C. for 8 hours
# Experimental: Seedlings of bean cv. Seaway were cultivated under normal conditions for the first two weeks, then they were treated with 10 mg/liter and 100 mg/liter concentration solutions of the examined active agents 2 and 1 days before the initiation of the frost tolerance experiments. In the experiment, the plants were kept at −2° C. for 8 hours, then grew under normal conditions for I week, and the survival ratio was determined. 4 trays were used for each experiment and 6 seeds were planted in each tray.
# bean plants (cv. Seaway) = test: Drought tolerance of beans, part b (7 days hardening); assay type: in vivo; details: 7 days without water, 10 mg/liter and 100 mg/liter solution named, table does not say which
# Excerpt: Based on the experiences of our preliminary experiments, the plants were hardened before the application of the active agent by withholding the water for a few days, until the first signs of withering appeared. Then the plants were watered and the active agent was either dissolved in the water, or sprayed to the plants directly. Afterwards, the plants were subjected to different periods of drought according to the given experiment, watered again, and after a week-long regeneration period, the survival ratio was determined.
# b) In this experiment, bean plants (cv. Seaway) were hardened for 7 days instead of the 5 days described in Part a. Then a 10 mg/liter and 100 mg/liter concentration solution of the active agent was applied two times a day for two days. Then 7 days without water followed, and after a week-long regeneration period, the results of the experiment were evaluated.
# soybean cv. Bólyi 44 = test: Drought tolerance of soybeans; assay type: in vivo; details: 6 days hardening; 50 mg/liter in the water; 4 days without watering, one week regeneration
# Experimental: Soybeans of soybean cv. Bólyi 44 were hardened for 6 days by withholding the water. This was followed by two days of watering, and the active agent was applied in the water. The concentration of the solution of the active agent was 50 mg/liter. After a 4-day-long cease of watering and a one week regeneration period, the number of surviving plants was recorded.
# Watering was ceased for 10 days for a certain group of plants in the experiment. It was observed that almost every plant perished. Each of the 4 surviving plants had previously been treated with the active agent.
# [1] = system: maize of low chilling tolerance (LT) population; test: CSVT, maize population of low chilling tolerance (LT); assay type: in vivo
# Experimental: as §1, §2
# (§3) In the case of a further experiment with maize of low chilling tolerance (LT) and high chilling tolerance (HT) populations [Ref: P. Landi, E. Frascaroli, A. Lovato; EUPHYTICA 64 21-29 (1992)], the following positive effects were found (Table 3.).
# [2] = system: maize of high chilling tolerance (HT) population; test: CSVT, maize population of high chilling tolerance (HT); assay type: in vivo
# Experimental: as §1, §2, §3
# HMv09 inbred maize line = test: CSVT, seeds soaked in active agent, HMv09 maize; assay type: in vivo; details: seeds soaked in 10 mg/l active agent
# Experimental: as §1, with “darkness. At the end of the experiment the number of normally developing and ungerminated seeds were recorded. The length of the normal seedlings was measured and the average length of the five longest seedlings was calculated. Seedlings longer than 0.33 times the average length of the five longest seedlings were considered to be of high vigour, and low vigour seedlings were shorter than this length.” for “darkness.”
# Mo 17 inbred maize line = test: CSVT (Complex Stressing Vigour Test), seeds soaked in active agent, Mo 17 maize; assay type: in vivo; details: seeds soaked in 10 mg/l active agent, * = significant vs control P < 0.05
# Experimental: as §1, with “darkness. At the end of the experiment the number of normally developing and ungerminated seeds were recorded. The length of the normal seedlings was measured and the average length of the five longest seedlings was calculated. Seedlings longer than 0.33 times the average length of the five longest seedlings were considered to be of high vigour, and low vigour seedlings were shorter than this length.” for “darkness.”
# McCall soybeans = test: CSVT, McCall soybeans; assay type: in vivo, soybean
# Experimental: as §1, §2
# When applying the CSVT test, the following results were obtained (Table 4.).
# [3] = 100 seeds pearled with 1 ml of 1 mg/ml in 5% PVA
structure (smiles),measurement,setting,value
"Cl.O=[N+]([O-])c1cccc(C(Cl)=NOCCCN2CCCCC2)c1 [Compound 3, N-[3-(1-piperidinyl)propoxy]-3-nitro-benzimidoyl-chloride monohydrochloride]","Ratio of high vigour plants (%), root",Soybean seeds; [3],58* %
same,"Ratio of high vigour plants (%), sprout",Soybean seeds; [3],63* %
same,effect on ratio of high vigour plants and length of sprouts and roots,Soybean seeds; PVA solution containing Compound 3 as pearling agent,increase the ratio of high vigour plants significantly
same,Ratio of high vigour plants (%),green peppers,45* %
same,Survival (%),bean cv. Seaway,40* %
same,Survival (%),bean plants (cv. Seaway),39* %
same,Survival (%),soybean cv. Bólyi 44,33* %
same,"Ratio of high vigour plants %, LT",[1],88* %
same,"Ratio of high vigour plants %, HT",[2],94* %
same,Ratio of high vigour plants (%),HMv09 inbred maize line,40* %
same,Ratio of high vigour plants (%),Mo 17 inbred maize line,28* %
same,Ratio of high vigour plants (%),McCall soybeans,46* %
